Test results as given in patent US20050153856A1, “Methods and compositions for killing spores” (priority 2002, published 2005).

Tested on: Bacillus thuringiensis spores
Test: Killing of spores (Example 2): microtiter serial 10-fold dilution, growth read with MTT
Type: cell-based
Conditions: wells 7-8: KI only, no laccase, no methylsyringate, 1 hour 24 degrees Celsius pH 6.5
Experimental: Spore suspension was pipetted into the wells in row A of a microtiter plate. The reaction was initiated by the addition of laccase solution.
The microtiter plate was incubated at room temperature (24 degrees Celsius) for 1 hour.
In the tables growth is indicated with a “+” symbol.

Measured: growth

[I-].[K+] [KI, Potassium iodide]
+: 10-fold dilution step 4 | listed as B, 10-fold dilution step 1 | listed as C, 10-fold dilution step 2 | listed as D, 10-fold dilution step 3 | listed as F, 10-fold dilution step 5 | listed as G, 10-fold dilution step 6
